Measurements published in PubChem BioAssay (NCI).
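Compound exposure: 48 hours, 5 concentrations, 96-well plates. TGI is the concentration that stops growth completely.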

Experiments:
Experiment in all cases: growth of human tumour cells (NCI), 48 h
[1] = system: 786-0 renal
[2] = system: HOP-62 NSCLC
[3] = system: SW-620 colon
[4] = system: SN12C renal
[5] = system: PC-3 prostate
[6] = system: MDA-MB-435
[7] = system: COLO 205 colon
[8] = system: CCRF-CEM leukemia
[9] = system: TK-10 renal
[10] = system: HS 578T breast
[11] = system: HCC-2998 colon
[12] = system: BT-549 breast
[13] = system: UACC-257 melanoma
[14] = system: ACHN renal
[15] = system: MDA-MB-231 breast
[16] = system: KM12 colon
[17] = system: HL-60(TB) leukemia
[18] = system: CAKI-1 renal
[19] = system: SK-MEL-2 melanoma
[20] = system: HOP-92 NSCLC
[21] = system: HCT-116 colon
[22] = system: SF-268 CNS
[23] = system: K-562 leukemia
[24] = system: RXF 393 renal
[25] = system: DU-145 prostate
[26] = system: OVCAR-8 ovarian
[27] = system: SK-MEL-5 melanoma
[28] = system: NCI-H226 lung
[29] = system: UO-31 renal
[30] = system: T-47D breast
[31] = system: NCI/ADR-RES ovarian
[32] = system: UACC-62 melanoma
[33] = system: SK-MEL-28 melanoma
[34] = system: HT29 colon
[35] = system: IGROV1 ovarian
[36] = system: EKVX NSCLC
[37] = system: MOLT-4 leukemia
[38] = system: SF-539 CNS
[39] = system: SF-295 CNS
[40] = system: LOX IMVI melanoma
[41] = system: M14 melanoma
[42] = system: OVCAR-5 ovarian
[43] = system: SK-OV-3 ovarian
[44] = system: NCI-H522 lung
[45] = system: SR leukemia
[46] = system: OVCAR-3 ovarian
[47] = system: HCT-15 colon
[48] = system: MCF7 breast
[49] = system: MALME-3M melanoma
[50] = system: NCI-H460 lung
[51] = system: MDA-N
[52] = system: A498 renal
[53] = system: RPMI-8226 leukemia
[54] = system: SNB-19 CNS
[55] = system: U251 CNS
[56] = system: NCI-H23 lung
[57] = system: OVCAR-4 ovarian
[58] = system: DMS 273 small cell lung
[59] = system: XF 498 CNS
[60] = system: A549 NSCLC
[61] = system: LXFL 529 NSCLC
[62] = system: DLD-1 colon
[63] = system: SNB-75 CNS
[64] = system: SNB-78 CNS
[65] = system: M19-MEL melanoma
[66] = system: KM20L2 colon

NNC(=O)CCc1ccc2ccc3ccccc3c2c1
TGI [1]: > 100 µM
TGI [2]: > 100 µM
TGI [3]: > 100 µM
TGI [4]: > 100 µM
TGI [5]: > 100 µM
TGI [6]: > 100 µM
TGI [7]: > 100 µM
TGI [8]: > 100 µM
TGI [9]: > 100 µM
TGI [10]: > 100 µM
TGI [11]: > 100 µM
TGI [12]: > 100 µM
TGI [13]: > 100 µM
TGI [14]: > 100 µM
TGI [15]: > 100 µM
TGI [16]: > 100 µM
TGI [17]: > 100 µM
TGI [18]: > 100 µM
TGI [19]: > 100 µM
TGI [20]: > 100 µM
TGI [21]: > 100 µM
TGI [22]: > 100 µM
TGI [23]: > 100 µM
TGI [24]: > 100 µM
TGI [25]: > 100 µM
TGI [26]: > 100 µM
TGI [27]: > 100 µM
TGI [28]: > 100 µM
TGI [29]: > 100 µM
TGI [30]: > 100 µM
TGI [31]: > 100 µM
TGI [32]: > 100 µM
TGI [33]: > 100 µM
TGI [34]: > 100 µM
TGI [35]: > 100 µM
TGI [36]: 97.9 µM
TGI [37]: > 100 µM
TGI [38]: > 100 µM
TGI [39]: > 100 µM
TGI [40]: > 100 µM
TGI [41]: > 100 µM
TGI [42]: > 100 µM
TGI [43]: > 100 µM
TGI [44]: > 100 µM
TGI [45]: > 100 µM
TGI [46]: > 100 µM
TGI [47]: > 100 µM
TGI [48]: > 100 µM
TGI [49]: > 100 µM
TGI [50]: > 100 µM
TGI [51]: > 100 µM
TGI [52]: > 100 µM
TGI [53]: > 100 µM
TGI [54]: > 100 µM
TGI [55]: > 100 µM
TGI [56]: > 100 µM
TGI [57]: > 100 µM

COc1cc2c3cc1Oc1c(OC)c(OC)cc4c1[C@@H](Cc1ccc(O)c(c1)Oc1ccc(cc1)C[C@@H]3N(C)CC2)N(C)CC4
TGI [58]: 34 µM
TGI [1]: 25.6 µM
TGI [2]: 36 µM
TGI [3]: 33.8 µM
TGI [4]: 46.5 µM
TGI [8]: 45.2 µM
TGI [9]: 35.4 µM
TGI [11]: 20.4 µM
TGI [13]: 10.9 µM
TGI [14]: 38.1 µM
TGI [16]: 27.7 µM
TGI [59]: 23.8 µM
TGI [17]: 26.4 µM
TGI [18]: 19.7 µM
TGI [19]: 30.9 µM
TGI [20]: 24.7 µM
TGI [21]: 21.1 µM
TGI [60]: 62 µM
TGI [22]: 45.6 µM
TGI [23]: 33.5 µM
TGI [24]: 25.9 µM
TGI [26]: 31.7 µM
TGI [61]: 24.8 µM
TGI [27]: 11.8 µM
TGI [28]: 44.8 µM
TGI [29]: 30.1 µM
TGI [62]: 56.3 µM
TGI [32]: 30.5 µM
TGI [33]: 29.5 µM
TGI [34]: 24.1 µM
TGI [35]: 36.9 µM
TGI [36]: 31.3 µM
TGI [37]: 34.2 µM
TGI [38]: 13.1 µM
TGI [39]: 30.9 µM
TGI [40]: 34.6 µM
TGI [63]: 23.2 µM
TGI [64]: > 100 µM
TGI [41]: 16.7 µM
TGI [42]: > 100 µM
TGI [44]: 20.3 µM
TGI [65]: 26.2 µM
TGI [45]: 4.95 µM
TGI [46]: 29.5 µM
TGI [47]: 27.2 µM
TGI [49]: 31.7 µM
TGI [50]: 75.6 µM
TGI [52]: 38.5 µM
TGI [53]: 41.5 µM
TGI [54]: 45.3 µM
TGI [55]: 21.7 µM
TGI [56]: 61.3 µM
TGI [66]: 21.1 µM
